How the values were obtained:
Assay type in all cases: in vivo, mouse
[1] = tested on: B6D2F1 host mice; assay: 15-day GVHD model in B6D2F1 host mice
Description: GVHD was established using donor cells obtained from wild type or AhR-deficient mice. B6D2F1 host mice were injected with wild type (WT) or AhR^−/− splenocytes to initiate the graft versus host (GVH) response. Due to a limited number of AhR-deficient mice available, whole splenocytes rather than purified T cells were used to initiate the GVH response. Host mice were given AHRL1 or vehicle treatments daily for 15 days. The vehicle consisted of a mixture of 6.7% anisole and peanut oil. A single loading dose of 10 mg/kg AHRL1 was given at the time of donor cell injection and a maintenance dose of 2 mg/kg AHRL1 was given every day thereafter until termination of the experiment on day 15.
The progression of GVHD in the host mice was monitored and a clinical GVHD pathology score was calculated. At termination of the 15-day study, each animal was evaluated and given a clinical GVHD pathology score based on five criteria: changes in weight, posture, activity, fur texture, and mortality. The clinical GVHD pathology score was assessed on a scale of 0 to 3, where 0 was normal, 1 was moderate morbidity, 2 was severe morbidity, and 3 was death.
In a separate study, the effect of AHRL1 on donor cell engraftment was examined and directly compared with the effect of TCDD. B6D2F1 host mice in groups of 6 were injected with splenocytes from C57Bl/6 mice to initiate the GVH response, and treated with AHRL1 or vehicle daily for 15 days. The vehicle consisted of a mixture of 6.7% anisole and peanut oil. A single loading dose of 10 mg/kg AHRL1 was given at the time of donor cell injection and a maintenance dose of 2 mg/kg AHRL1 was given every day thereafter until termination of the experiment on day 15. 15 μg/kg of TCDD was given to an additional group of 6 mice on day 0 as a positive control. […] The donor cells were identified in the host spleen as the H-2D^d negative population.

[2] = Clinical chemistry profile from toxicology screen of NOD mice; conditions: 20 weeks of age
Excerpt: The results listed in Table 1 illustrate an absence of clinical signs of toxicity after prolonged treatment with AHRL1. Table 1 lists the results of a clinical chemistry profile from a toxicology screen of the AHRL1 treated, TCDD treated, and vehicle treated mice. The clinical chemistry panel includes tests for substances in the blood that have biological functions, metabolites or waste products, and substances that indicate cell damage or disease. The concentrations of the substances listed in Table 1 were measured at 20 weeks of age. The concentrations are reported as milligrams per deciliter (mg/dl), grams per deciliter (g/dl), units per liter (U/L), or milli equivalents per liter (mEq/L).
FIGS. 18a-18r show the clinical chemistry profile from a toxicology screen for three groups: AHRL1 treated mice, vehicle treated mice, and untreated mice. For the test group, the mice were treated with AHRL1. The vehicle given was the carrier for the AHRL1 compound. The carrier included 30% DMSO, 20% Cremaphor, and 50% Peceol. The mice were tested after 12 weeks of exposure. The clinical chemistry panel includes tests for substances in the blood that have biological functions, metabolites or waste products, and substances that indicate cell damage or disease.

[3] = tested on: NOD.Foxp3DTR mice; assay: Islet infiltration in Foxp3 depleted (DT treated) NOD.Foxp3DTR mice; conditions: day 9, AHRL1 60 mg/kg oral days -1, 1, 3, 5, 7, TCDD day -1
Excerpt: FIGS. 6a-6e illustrate the therapeutic effects of treatment with an AhR ligand on a Foxp3 deficient subject using a NOD.Foxp3− mouse model. […]. NOD.Foxp3^DTR mice were obtained from the Juvenile Diabetes Research Foundation Center (JDRF) for Immune Tolerance in Diabetes at Harvard (CITDH). Mice were bred and maintained under specific pathogen-free conditions at Oregon State University facilities. All experimental procedures using animals were approved by the Institutional Animal Care and Use Committee at Oregon State University.
FIG. 6a illustrates details of the mouse model used to analyze the therapeutic effects and mechanisms by which AhR activation alters T cell differentiation. […] Arrows 152 illustrate the NOD.Foxp3^DTR mice were orally dosed with 60 mg/kg AHRL1 on days −1, 1, 3, 5, and 7 relative to DT treatment on day 0. The carrier for AHRL1 was a 30% DMSO, 20% CREMAPHOR, 50% PECEOL solution. Data was also collected from NOD.Foxp3^DTR mice treated with TCDD on day −1 relative to DT treatment on day 0. […]
The pancreases from the sacrificed mice were excised, sectioned, and stained with hematoxylin and eosin for analysis of islet infiltration by inflammatory CTL cells. Islet infiltration was scored on sequential hematoxylin and eosin stained pancreas sections separated by 200 μm. Islets were scored as no infiltration, less than 50% infiltration, or greater than 50% infiltration. […]

Clc1cc2c(cc1Cl)Oc1cc(Cl)c(Cl)cc1O2 [TCDD, 2,3,7,8-tetrachlorodibenzo-p-dioxin]
total number of donor CD4+ and CD8+ T cells engrafted in the host spleen ([1]; day 15, AHRL1 10 mg/kg then 2 mg/kg daily, TCDD 15 μg/kg day 0): reduced total number
percentage and number of activated donor CD8+ T cells expressing a CTL phenotype (CD8+CD44hiCD45RBlow) ([1]; host spleen, day 15): reduce the percentage and number
percentage and number of host B cells (CD19+ cells) ([1]; host spleen, day 15, vs vehicle): increased percentage and number
Alanine Aminotransferase (ALT) [2]: 24.0 ± 2.5 U/L
Albumin [2]: 3.4 ± 0.1 g/dL
Alkaline Phosphatase [2]: 80.0 ± 14.7 U/L
Anion Gap [2]: 34.0 ± 1.2 mEq/L
Bicarbonate (tCO2) [2]: 18.6 ± 1.4 mEq/L
Bilirubin, Total [2]: 0.43 ± 0.64 mg/dL
Blood Urine Nitrogen (BUN) [2]: 20.0 ± 2.7 mg/dL
Calcium [2]: 10.8 ± 0.4 mg/dL
Chloride [2]: 109.5 ± 1.7 mEq/L
Cholesterol [2]: 91.9 ± 5.1 mg/dL
Creatinine [2]: 0.3 ± 0.1 mg/dL
Creatinine Kinase (CK) [2]: 398.3 ± 248.7 U/L
Gamma-glutamyl transferase (GGT) [2]: 0.0 ± 0.0 U/L
Phosphorous [2]: 8.2 ± 1.2 mg/dL
Potassium [2]: 9.7 ± 0.4 mEq/L
Sodium [2]: 151.9 ± 2.4 mEq/L
Total Protein [2]: 5.6 ± 0.2 g/dL
islets showing no infiltration [3]: greater percentage of islets being free from infiltration

— patent US10308649B2, “Compounds and methods to suppress autoimmune response” (Oregon State University, priority 2014, dated 2019)
